# Target: Methionine--tRNA ligase (Staphylococcus aureus)
# Experiment: Compound tested for inhibition of Staphylococcus aureus MRS(methionyl tRNA synthetase) in aminoacylation assay
row,IC50,SMILES
1,< 3 nM,Oc1cc(NCCCNCc2cc(Br)cc(Br)c2)nc2ccccc12
2,< 3 nM,Oc1cc(NCCCNCc2cc(Cl)cc(Cl)c2Cl)nc2ccccc12
3,< 3 nM,CCOc1c(I)cc(I)cc1CNCCCNc1cc(O)c2ccccc2n1

# Target: Methionine--tRNA ligase (Staphylococcus aureus)
# Experiment: as above
# Remark: another data set of the same source
row,IC50,SMILES
1,4.3 nM,CCOc1c(Cl)cc(OC)cc1CNCCCNc1cc(O)c2ccccc2n1 [2-[3-(3-Chloro-2-ethoxy-5-methoxy-benzylamino)-propylamino]-1H-quinolin-4-one]
2,11 nM,"Oc1cc(NCCCNCc2cc(Br)cc(Br)c2OCC(F)(F)F)nc2ccccc12 [2-{3-[3,5-Dibromo-2-(2,2,2-trifluoro-ethoxy)-benzylamino]-propylamino}-1H-quinolin-4-one]"
3,140 nM,"O=C(NCCCNc1cc(O)c2ccccc2n1)c1ccc(Cl)c(Cl)c1 [3,4-Dichloro-N-[3-(4-oxo-1,4-dihydro-quinolin-2-ylamino)-propyl]-benzamide]"
4,4.6 nM,"CCOc1c(Br)cc(C#N)cc1CNCCCNc1cc(O)c2ccccc2n1 [3-Bromo-4-ethoxy-5-{[3-(4-oxo-1,4-dihydro-quinolin-2-ylamino)-propylamino]-methyl}-benzonitrile]"
